Results as given in ChEMBL document CHEMBL1201862, “PubChem BioAssay data set” (2004).
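Each compound was tested at five concentrations against cells in 96-well plates for 48 hours. Abbreviation: GI50, concentration required for 50% inhibition of growth.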 The source made the active and inactive calls. Cut-off read from the data, not from the text of the source: active = GI50 up to about 1.1 µM and inactive = higher.

Legend:
Assay in all cases: NCI anticancer screen, dose series, 48 h
DMS-273 = test system: DMS-273
LOX IMVI = test system: LOX IMVI
RXF 631 = test system: RXF 631
NCI-H23 = test system: NCI-H23
EKVX = test system: EKVX
SF-295 = test system: SF-295
SK-MEL-2 = test system: SK-MEL-2
A549 = test system: A549
Malme-3M = test system: Malme-3M
NCI-H460 = test system: NCI-H460
UACC-62 = test system: UACC-62
RPMI-8226 = test system: RPMI-8226
SK-OV-3 = test system: SK-OV-3
HCT-116 = test system: HCT-116
RXF 393 = test system: RXF 393
LXFL 529 = test system: LXFL 529
M19-MEL = test system: M19-MEL
786-0 = test system: 786-0
SF-268 = test system: SF-268
SW-620 = test system: SW-620
CAKI-1 = test system: CAKI-1
HOP-62 = test system: HOP-62
IGROV-1 = test system: IGROV-1
SNB-78 = test system: SNB-78
HL-60 = test system: HL-60
KM-20L2 = test system: KM-20L2
HOP-18 = test system: HOP-18
TK-10 = test system: TK-10
SNB-19 = test system: SNB-19
OVCAR-8 = test system: OVCAR-8
XF498 = test system: XF498
A498 = test system: A498
HOP-92 = test system: HOP-92
OVCAR-5 = test system: OVCAR-5
MOLT-4 = test system: MOLT-4
CCRF-CEM = test system: CCRF-CEM
DLD-1 = test system: DLD-1
OVCAR-4 = test system: OVCAR-4
SNB-75 = test system: SNB-75
SK-MEL-5 = test system: SK-MEL-5
U-251 = test system: U-251
UACC-257 = test system: UACC-257
ACHN = test system: ACHN
KM12 = test system: KM12
M14 = test system: M14
HT-29 = test system: HT-29
COLO 205 = test system: COLO 205
HCT-15 = test system: HCT-15
SN12C = test system: SN12C
UO-31 = test system: UO-31
HCC 2998 = test system: HCC 2998
NCI-H522 = test system: NCI-H522
OVCAR-3 = test system: OVCAR-3
K562 = test system: K562
SK-MEL-28 = test system: SK-MEL-28
SF-539 = test system: SF-539
NCI-H226 = test system: NCI-H226
SR = test system: SR
DMS-114 = test system: DMS-114

`Cc1cc(C)nc(NS(=O)(=O)c2ccc(NC(=O)c3cccc4c(Nc5ccc(S(=O)(=O)N=C(N)N)cc5)c5ccccc5nc34)cc2)n1` was tested, and the GI50 (DMS-273) was 19.7 µM (inactive), the GI50 (LOX IMVI) was 39.5 µM (inactive) and the GI50 (RXF 631) was 27.3 µM (inactive). For the same molecule, the GI50 (NCI-H23) was 40 µM (inactive), the GI50 (EKVX) was 35 µM (inactive) and the GI50 (SF-295) was 27.4 µM (inactive). For the same molecule, the GI50 (SK-MEL-2) was 52.8 µM (inactive), the GI50 (A549) was 62.5 µM (inactive) and the GI50 (Malme-3M) was > 100 µM (inactive). For the same molecule, the GI50 (NCI-H460) was 83.6 µM (inactive), the GI50 (UACC-62) was 29.9 µM (inactive) and the GI50 (RPMI-8226) was 15.1 µM (inactive). For the same molecule, the GI50 (SK-OV-3) was > 100 µM (inactive), the GI50 (HCT-116) was 32.4 µM (inactive) and the GI50 (RXF 393) was 15.6 µM (inactive). The GI50 (LXFL 529) was 3.88 µM (inactive), the GI50 (M19-MEL) was 22.1 µM (inactive) and the GI50 (786-0) was 30.3 µM (inactive). The GI50 (SF-268) was 22.5 µM (inactive), the GI50 (SW-620) was 9.48 µM (inactive) and the GI50 (CAKI-1) was 20.5 µM (inactive). The GI50 (HOP-62) was 37.8 µM (inactive), the GI50 (IGROV-1) was 40.4 µM (inactive) and the GI50 (SNB-78) was 8.3 µM (inactive). For the same molecule, the GI50 (HL-60) was 5.56 µM (inactive), the GI50 (KM-20L2) was 34.2 µM (inactive) and the GI50 (HOP-18) was > 100 µM (inactive). The GI50 (TK-10) was 34.8 µM (inactive), the GI50 (SNB-19) was 33.1 µM (inactive) and the GI50 (OVCAR-8) was 7.94 µM (inactive). The GI50 (XF498) was > 100 µM (inactive), the GI50 (A498) was > 100 µM (inactive) and the GI50 (HOP-92) was 19.9 µM (inactive). The GI50 (OVCAR-5) was > 100 µM (inactive), the GI50 (MOLT-4) was 32.8 µM (inactive) and the GI50 (CCRF-CEM) was 45.6 µM (inactive). For the same molecule, the GI50 (DLD-1) was 7.62 µM (inactive), the GI50 (OVCAR-4) was 14.5 µM (inactive) and the GI50 (SNB-75) was 38 µM (inactive). The GI50 (SK-MEL-5) was 54.8 µM (inactive), the GI50 (U-251) was 33.9 µM (inactive) and the GI50 (UACC-257) was 24.7 µM (inactive). The GI50 (ACHN) was 47.1 µM (inactive), the GI50 (KM12) was 6.17 µM (inactive) and the GI50 (M14) was 94.6 µM (inactive). The GI50 (HT-29) was 37.1 µM (inactive), the GI50 (COLO 205) was 37.9 µM (inactive) and the GI50 (HCT-15) was 30.1 µM. For the same molecule, the GI50 (SN12C) was 50.7 µM (inactive), the GI50 (UO-31) was 46.6 µM (inactive) and the GI50 (HCC 2998) was 4.85 µM (inactive). The GI50 (NCI-H522) was 44.3 µM (inactive), the GI50 (OVCAR-3) was 10.5 µM (inactive) and the GI50 (K562) was 7.6 µM (inactive). For the same molecule, the GI50 (SK-MEL-28) was 33.4 µM (inactive) and the GI50 (SF-539) was 17.3 µM (inactive).

For `CCCCCCCCCCCC(=O)OCCOCCOCCOCCOCCOCc1ccc(OC)cc1`, the GI50 (DMS-273) was > 100 µM (inactive), the GI50 (LOX IMVI) was > 100 µM (inactive) and the GI50 (RXF 631) was > 100 µM (inactive). For the same molecule, the GI50 (NCI-H23) was > 100 µM (inactive), the GI50 (NCI-H226) was > 100 µM (inactive) and the GI50 (EKVX) was > 100 µM (inactive). For the same molecule, the GI50 (SF-295) was > 100 µM (inactive), the GI50 (SK-MEL-2) was > 100 µM (inactive) and the GI50 (A549) was > 100 µM (inactive). For the same molecule, the GI50 (Malme-3M) was > 100 µM (inactive), the GI50 (NCI-H460) was > 100 µM (inactive) and the GI50 (UACC-62) was > 100 µM (inactive). The GI50 (RPMI-8226) was > 100 µM (inactive), the GI50 (SK-OV-3) was > 100 µM (inactive) and the GI50 (HCT-116) was > 100 µM (inactive). The GI50 (RXF 393) was > 100 µM (inactive), the GI50 (LXFL 529) was > 100 µM (inactive) and the GI50 (SR) was > 100 µM (inactive). For the same molecule, the GI50 (M19-MEL) was > 100 µM (inactive), the GI50 (786-0) was > 100 µM (inactive) and the GI50 (SF-268) was > 100 µM (inactive). The GI50 (SW-620) was > 100 µM (inactive), the GI50 (CAKI-1) was > 100 µM (inactive) and the GI50 (HOP-62) was > 100 µM (inactive). The GI50 (IGROV-1) was 88.5 µM (inactive), the GI50 (SNB-78) was > 100 µM (inactive) and the GI50 (HL-60) was 14.8 µM (inactive). For the same molecule, the GI50 (KM-20L2) was > 100 µM (inactive), the GI50 (HOP-18) was > 100 µM (inactive) and the GI50 (TK-10) was > 100 µM (inactive). The GI50 (SNB-19) was > 100 µM (inactive), the GI50 (OVCAR-8) was > 100 µM (inactive) and the GI50 (A498) was > 100 µM (inactive). The GI50 (HOP-92) was > 100 µM (inactive), the GI50 (OVCAR-5) was > 100 µM (inactive) and the GI50 (MOLT-4) was 73.6 µM (inactive). The GI50 (CCRF-CEM) was > 100 µM (inactive), the GI50 (DLD-1) was > 100 µM (inactive) and the GI50 (OVCAR-4) was > 100 µM (inactive). For the same molecule, the GI50 (SNB-75) was > 100 µM (inactive), the GI50 (SK-MEL-5) was > 100 µM (inactive) and the GI50 (U-251) was > 100 µM (inactive). For the same molecule, the GI50 (UACC-257) was > 100 µM (inactive), the GI50 (ACHN) was > 100 µM (inactive) and the GI50 (KM12) was > 100 µM (inactive). For the same molecule, the GI50 (M14) was > 100 µM (inactive), the GI50 (HT-29) was > 100 µM (inactive) and the GI50 (COLO 205) was > 100 µM (inactive). The GI50 (HCT-15) was over 100 µM, the GI50 (SN12C) was > 100 µM (inactive) and the GI50 (UO-31) was > 100 µM (inactive). The GI50 (HCC 2998) was > 100 µM (inactive), the GI50 (NCI-H522) was > 100 µM (inactive) and the GI50 (DMS-114) was > 100 µM (inactive). The GI50 (OVCAR-3) was > 100 µM (inactive), the GI50 (K562) was > 100 µM (inactive) and the GI50 (SK-MEL-28) was > 100 µM (inactive).

With `CC(=O)OCC1OC(n2c(-c3ccc(N)cc3)cc(-c3ccco3)c(C#N)c2=O)C(OC(C)=O)C(OC(C)=O)C1OC(C)=O` (stereo not given) the GI50 (DMS-273) was 5.26 µM (inactive), the GI50 (LOX IMVI) was 8.04 µM (inactive) and the GI50 (RXF 631) was 44.3 µM (inactive). For the same molecule, the GI50 (NCI-H23) was 26 µM (inactive), the GI50 (EKVX) was > 50 µM (inactive) and the GI50 (SF-295) was 28 µM (inactive). For the same molecule, the GI50 (SK-MEL-2) was 22.4 µM (inactive), the GI50 (A549) was 15.6 µM (inactive) and the GI50 (Malme-3M) was > 50 µM (inactive). For the same molecule, the GI50 (UACC-62) was 37.2 µM (inactive), the GI50 (SK-OV-3) was > 50 µM (inactive) and the GI50 (HCT-116) was 2.3 µM (inactive). The GI50 (RXF 393) was > 50 µM (inactive), the GI50 (LXFL 529) was 11.1 µM (inactive) and the GI50 (SR) was > 50 µM (inactive). The GI50 (M19-MEL) was 18.7 µM (inactive), the GI50 (786-0) was 14.2 µM (inactive) and the GI50 (SF-268) was 11.5 µM (inactive). The GI50 (SW-620) was > 50 µM (inactive), the GI50 (CAKI-1) was > 50 µM (inactive) and the GI50 (HOP-62) was > 50 µM (inactive). The GI50 (IGROV-1) was 45 µM (inactive), the GI50 (SNB-78) was > 50 µM (inactive) and the GI50 (KM-20L2) was > 50 µM (inactive). The GI50 (HOP-18) was > 50 µM (inactive), the GI50 (TK-10) was > 50 µM (inactive) and the GI50 (SNB-19) was > 50 µM (inactive). The GI50 (OVCAR-8) was 5.87 µM (inactive), the GI50 (A498) was > 50 µM (inactive) and the GI50 (HOP-92) was 4.08 µM (inactive). The GI50 (OVCAR-5) was > 50 µM (inactive), the GI50 (MOLT-4) was > 50 µM (inactive) and the GI50 (DLD-1) was > 50 µM (inactive). For the same molecule, the GI50 (OVCAR-4) was 38.5 µM (inactive), the GI50 (SNB-75) was > 50 µM (inactive) and the GI50 (SK-MEL-5) was 8.93 µM (inactive). The GI50 (U-251) was 7.06 µM (inactive), the GI50 (UACC-257) was > 50 µM (inactive) and the GI50 (ACHN) was > 50 µM (inactive). The GI50 (KM12) was 7.29 µM (inactive), the GI50 (M14) was > 50 µM (inactive) and the GI50 (HT-29) was > 50 µM (inactive). The GI50 (COLO 205) was > 50 µM (inactive), the GI50 (HCT-15) was over 50 µM and the GI50 (SN12C) was > 50 µM (inactive). The GI50 (UO-31) was > 50 µM (inactive), the GI50 (HCC 2998) was > 50 µM (inactive) and the GI50 (NCI-H522) was 8.17 µM (inactive). The GI50 (DMS-114) was 2.64 µM (inactive), the GI50 (OVCAR-3) was > 50 µM (inactive) and the GI50 (SK-MEL-28) was > 50 µM (inactive). For the same molecule, the GI50 (SF-539) was 7.62 µM (inactive).
